{
  "source": "patent US7122666B2",
  "about": "“Heteroaryl-substituted pyrrole derivatives, their preparation and their therapeutic uses” (Sankyo Company, Limited, priority 1999, dated 2006)",
  "system": "adjuvant-induced arthritis",
  "assay": "Activity in preventing the development of adjuvant-induced arthritis in vivo (Test Examples 4 and 4′)",
  "details": "Table 10′; Lewis rat, oral once a day from day 0 to day 20, inhibition of swelling of injected foot on day 21",
  "procedure": "The test was performed according to the method described by Winder et al. (Arthritis Rheum., 12, 472–482, 1969). Heat-killed dried Mycobacterium butyricum (Difco Laboratories, Lot 679123) was ground on an agate mortar, and was then suspended in dry-sterilised liquid paraffin (first grade, Wako Pure Chemical Industries, Ltd.) to make a 2 ml suspension. The resulting suspension was then sonicated and used as an adjuvant. Arthritis was induced by the intradermal injection of the adjuvant (100 μg of heat killed dried bacterium/0.05 ml of paraffin/paw) into the heel of the right hind paw of a Lewis rat (male, age 8 weeks, Japan Charles River). […] The volumes of the swollen feet (adjuvant-injected right hind foot volume—non-injected left hind foot volume) were calculated. The percent inhibition of swelling of the injected foot of the treated animals as compared to that of the control animals on day 21 was calculated as follows. […] ID50 values were calculated using this curve. […] […]",
  "data": [
    {"smiles": "CC1C[C@H]2C=C(c3c[nH]c(-c4ccc(F)cc4)c3-c3ccncc3)CCN2C1", "note": "(stereo partly drawn) [Example 16′, 2-(4-Fluorophenyl)-4-[(8aS)-2-methyl-1,2,3,5,6,8a-hexahydroindolizin-7-yl]-3-(pyridin-4-yl)1H-pyrrole]", "values": [
      {"measurement": "Activity in Preventing the Development of Adjuvant-Induced Arthritis in vivo IC50", "value": 1.2, "unit": "mg/kg"}
    ]}
  ]
}
